Laboratory results published in patent US8222278B2, “Treatment of attention-deficit/hyperactivity disorder” (Abbott Laboratories, priority 2008, dated 2012).

System: adults with ADHD
Assay: Study A: ABT-894 Adult ADHD Dose-Ranging crossover clinical study, efficacy rating scales
Type: in vivo, human
Protocol: A clinical study (Study A) was conducted to assess the safety and efficacy of ABT-894 compared to placebo in adults with ADHD and to evaluate the dose-response relationship.
A total of 243 subjects aged 18 to 60 years old meeting DSM-IV-TR criteria for ADHD were randomized across the 5 dose groups. Male or female patients were included. […] The disposition of the study subjects is further discussed with the study results below.
Subjects in each dose group received, in random order, both ABT-894 and placebo according to a 2×2 crossover design. Each treatment period was 4 weeks separated by a 2-week washout period.
Each site was assigned to one of two cohorts (Cohort A or Cohort B) in approximately a 3:2 ratio. Subjects in Cohort A were randomized in equal proportions to one of 6 treatment sequences in 3 dose groups, and subjects in Cohort B were randomized in equal proportions to one of 4 treatment sequences in 2 dose groups, as shown in Table 1. Within each dose group subjects received either ABT-894 or atomoxetine in Period 1 and placebo in Period 2, or placebo in Period 1 and ABT-894 or atomoxetine in Period 2.
The study medication was dispensed in the form of a capsule. Each capsule contained ABT-894, atomoxetine, or placebo. The capsules were made to look identical.
The primary efficacy endpoint was the Conners' Adult ADHD Rating Scale—Investigator Rated (CAARS:Inv) Total Score (18 items) at the final evaluation of each 4-week treatment period. The CAARS:Inv was assessed at baseline and Days 7. 14. 21, and 28 of each period. Each CAARS:Inv item was rated on a 4-point scale of frequency of occurrence (0=not at all, never; 3=very much. very frequently) during the previous 7 days.
Secondary efficacy endpoints included the CAARS:Inv Inattentive and Hyperactive/Impulsive Subscale Scores, Clinical Global Impression-ADHD-Severity Scale (CGI-ADHD-S). Adult ADHD Investigator Symptom Report Scale (AISRS), including total and subscales, and the Self-rated Connors Adult ADHD Rating Scale (CAARS-Self). Health outcomes including the Adult ADHD Quality of Life Scale (AAQoL) and Work Productivity and Activity Impairment Questionnaire (WPAI) were used to evaluate the validity of these scales in this study population for use in subsequent clinical trials.
The primary analysis was performed on each dose group separately according to the Statistical Analysis Plan (SAP). The primary statistical model that was used for analyzing the primary efficacy variable, the CAARS:INV total score, and all other secondary efficacy variables was determined by a SAP specified testing procedure. The comparability between two sequences for a given dose group with respect to the difference between period-specific baselines was tested using a one-way ANCOVA with the term of treatment and the Period I baseline as the covariate at the significance level of 0.10. The equal residual effect from Period I to Period II between two different sequences for a given dose group was tested using a standard model for cross-over data analysis, Grizzle model, on the term of “sequence” at the significance level of 0.10.
After the study blind was broken, across 5 dose groups. all the tests accepted the null hypothesis that there was no statistically significant treatment effect for the differences between the period-specific baselines. The tests also accepted the null hypothesis that there was no period residual effect in any of the dose groups. Accordingly, the Grizzle model was used as the primary analysis model to analyze treatment group difference for CAARS:INV total score at Day 28 for each dose group. The Grizzle Model was carried out by SAS PROC Mixed with the terms of study center. sequence, subjects within sequence, period, treatment, as well as period-specific baselines as covariates.
The primary efficacy dataset included all subjects who completed both periods of the study (completers dataset). […]

[1] = ABT-894 1 mg QD, day 28, completers N = 40
[2] = ABT-894 2 mg QD, day 28, completers N = 37
[3] = ABT-894 4 mg BID, day 28, completers N = 43
[4] = ABT-894 4 mg QD, day 28, completers N = 36

## Clc1cc(N2C[C@@H]3CN[C@@H]3C2)cnc1Cl [ABT-894, 3-(5,6-Dichloro-pyridin-3-yl)-1S,5S-3,6-diazabicyclo[3.2.0]heptane]
[1]
  AISRS Hyperactivity Score, mean difference from placebo: 1.53 (−0.8, 3.8)
  AISRS Inattention Score, mean difference from placebo: 1.72 (−0.6, 4.1)
  AISRS Total Score, mean difference from placebo: 3.19 (−1.2, 7.6)
  CAARS:Inv ADHD Index, mean difference from placebo: 1.84 (−0.0. 3.7)
  CAARS:Inv Hyperactive/Impulsive subscale score, mean difference from placebo: 0.93 (−0.2, 2.0)
  CAARS:Inv Inattentive subscale score, mean difference from placebo: 0.94 (−1.5, 3.4)
  CAARS:Inv Total Score, mean difference from placebo: 2.11 (−2.4, 6.6)
  CAARS:Self ADHD Index, mean difference from placebo: 2.04 (0.2, 3.9)
  CAARS:Self Hyperactivity Score, mean difference from placebo: 0.68 (−0.4, 1.8)
  CAARS:Self Impulsivity Score, mean difference from placebo: 0.65 (−0.1, 1.4)
  CAARS:Self Inattention/Memory Score, mean difference from placebo: 0.60 (−0.5, 1.7)
  CAARS:Self Problem with Self-concept Score, mean difference from placebo: 0.51 (−0.2, 1.2)
  CAARS:Self Total Score, mean difference from placebo: 3.57 (−0.4, 7.5)
  CGI-ADHD-S, mean difference from placebo: 0.04 (−0.3, 0.4)
ABT-894 2 mg QD
  Measures of sustained attention, inhibitory control, and executive function: improved measures of sustained attention, inhibitory control, and executive function
[2]
  AISRS Hyperactivity Score, mean difference from placebo: −1.11 (−3.0, 0.7)
  AISRS Inattention Score, mean difference from placebo: −1.59 (−3.6, 0.4)
  AISRS Total Score, mean difference from placebo: −2.72 (−6.4, 1.0)
  CAARS:Inv ADHD Index, mean difference from placebo: −1.52 (−3.3, 0.2)
  CAARS:Inv Hyperactive/Impulsive subscale score, mean difference from placebo: −0.55 (−1.4, 0.3)
  CAARS:Inv Inattentive subscale score, mean difference from placebo: −1.92 (−3.8, −0.1)
  CAARS:Inv Total Score, mean difference from placebo: −3.18 (6.7,0.3)
  CAARS:Self ADHD Index, mean difference from placebo: −1.50 (−3.3, 0.3)
  CAARS:Self Hyperactivity Score, mean difference from placebo: −0.57 (−1.4, 0.3)
  CAARS:Self Impulsivity Score, mean difference from placebo: −0.48 (−1.3, 0.3)
  CAARS:Self Inattention/Memory Score, mean difference from placebo: −0.23 (−1.2, 0.8)
  CAARS:Self Problem with Self-concept Score, mean difference from placebo: −0.57 (−1.6, 0.5)
  CAARS:Self Total Score, mean difference from placebo: −2.64 (−6.6, 1.3)
  CGI-ADHD-S, mean difference from placebo: −0.31 (−0.6, 0.0)
ABT-894 4 mg BID vs atomoxetine
  Efficacy measures compared with atomoxetine: comparable across efficacy measures
[3]
  AISRS Hyperactivity Score, mean difference from placebo: −3.58 (−5.6, −1.6)
  AISRS Inattention Score, mean difference from placebo: −4.26 (−6.6, −1.9)
  AISRS Total Score, mean difference from placebo: −8.07 (−12.2, −3.9)
  CAARS:Inv ADHD Index, mean difference from placebo: −3.37 (−5.3. −1.4)
  CAARS:Inv Hyperactive/Impulsive subscale score, mean difference from placebo: −1.90 (−3.0, −0.8)
  CAARS:Inv Inattentive subscale score, mean difference from placebo: −4.08 (−6.4, −1.7)
  CAARS:Self ADHD Index, mean difference from placebo: −3.31 (−5.2, −1.4)
  CAARS:Self Hyperactivity Score, mean difference from placebo: −1.74 (−2.9, −0.6)
  CAARS:Self Impulsivity Score, mean difference from placebo: −0.70 (−1.4, −0.0)
  CAARS:Self Inattention/Memory Score, mean difference from placebo: −1.40 (−2.5, −0.3)
  CAARS:Self Problem with Self-concept Score, mean difference from placebo: −1.39 (−2.5, −0.3)
  CAARS:Self Total Score, mean difference from placebo: −7.34 (−11.6, −3.1)
  CGI-ADHD-S, mean difference from placebo: −0.58 (−1.0, −0.2)
[4]
  AISRS Hyperactivity Score, mean difference from placebo: −0.81 (−2.6, 1.0)
  AISRS Inattention Score, mean difference from placebo: 0.81 (−1.2, 2.8)
  AISRS Total Score, mean difference from placebo: −0.13 (−3.6, 3.4)
  CAARS:Inv ADHD Index, mean difference from placebo: −0.12 (−1.8, 1.5)
  CAARS:Inv Hyperactive/Impulsive subscale score, mean difference from placebo: −1.07 (−2.1, −0.0)
  CAARS:Inv Inattentive subscale score, mean difference from placebo: 0.60 (−1.5, 2.7)
  CAARS:Inv Total Score, mean difference from placebo: 0.23 (−3.2, 3.7)
  CAARS:Self ADHD Index, mean difference from placebo: −0.19 (−1.9, 1.5)
  CAARS:Self Hyperactivity Score, mean difference from placebo: −0.78 (−1.8, 0.2)
  CAARS:Self Impulsivity Score, mean difference from placebo: −0.02 (−0.9, 0.9)
  CAARS:Self Inattention/Memory Score, mean difference from placebo: 0.11 (−0.9, 1.2)
  CAARS:Self Problem with Self-concept Score, mean difference from placebo: 0.33 (−0.7, 1.4)
  CAARS:Self Total Score, mean difference from placebo: −1.13 (−5.2, 2.9)
  CGI-ADHD-S, mean difference from placebo: −0.06 (−0.3, 0.2)
Human patients, compared to placebo
  Efficacy in the treatment of the core symptoms of ADHD: statistically significant efficacy compared to placebo
